Reference: patent US6716810B1, “Composition and method for regulation of body weight and associated conditions” (Eleanor Roosevelt Institute, priority 1998, dated 2004)
“Also recorded” adds a separate entry of the source.

What was measured:
Assay type in all cases: in vivo, mouse
ob/ob mutant mice [1] = experiment: Weight gain and food intake in ob/ob mutants treated with leptin, MSH analog or both (Example 5)
Method: Leptin deficient (ob/ob) mutants show both hyperphagia and “increased metabolic efficiency” as witnessed by their ability to gain weight even when pair-fed with normal congenic controls. To determine the effects of leptin and MSH on food intake and weight gain, four sets of ob/ob mutants were treated with leptin, an MSH analog, both together, or vehicle alone. The MSH analog [Ac-Cys^4, D-Phe^7, Cys^10]α-MSH (4-13) was purchased from Peninsula Laboratories (Belmont, Calif.). Mice were treated with daily injections of 7 micrograms of each, both or neither.

obese lep^ob/ob mice = experiment: Weight change in obese lep ob/ob mice treated with leptin, α-MSH analog or both (Example 4); settings: 3 μg of each compound i.p. once daily; mice aged 2 months
Method: To assess a more general effect of peripheral melanocortin on adipocytes, another genetic form of obesity, in lep^ob/ob mice, was treated with the α-MSH analog. In this experiment, the mice received leptin or the α-MSH analog alone, and in combination.
Briefly, obese lep^ob/ob mice at age 2 months (2 per group) received daily either: (1) 3 μg of α-MSH analog (described in Examples 2 and 3 above); (2) 3 μg of recombinant mouse leptin; (3) 3 μg of α-MSH analog and 3 μg of recombinant mouse leptin in combination; or (4) saline. The compounds were delivered intraperitoneally once daily, 1-2 hours before the onset of darkness.

[2] = tested on: POMC homozygous mutant female mice; experiment: Daily intraperitoneal MSH analog in POMC homozygous mutant mice: body weight, food intake, coat pigmentation (Example 2); settings: for weight loss, % of excess weight by 2 weeks: p<0.05 at day 16
Method: (§1) To test initially for the effect of peripheral melanocortins on weight change, we selected the stable agonist [Ac-Cys^4, D-Phe^7, Cys^10]α-MSH (4-13) (described in Cody et al., 1985, J. Med. Chem. 28, 583-588; incorporated herein by reference in its entirety). Briefly, [Ac-Cys^4, D-Phe^7, Cys^10]α-MSH (4-13) amide, having the cysteines connected by a disulfide bridge, was obtained from Peninsula Laboratories, CA. Lyophilized powder was dissolved in water at 1 mg/ml, which was diluted in PBS to 10 μg/mL. During the experiments, mice were maintained on a normal 12 h/12 h light/dark cycle with food and water ad libitum. Mice were fed standard laboratory rodent diet (#5001).
(§2) In order to see whether the α-MSH analog has an effect on food intake, we compared weight change and food intake in these mice for one week (see bars in FIGS. 4A and 4B) under MSH analog treatment and after MSH analog treatment was stopped (FIGS. 4C and 4D). During one week under MSH analog treatment mutant mice lost 0.5 g, while wildtype littermates gained 0.3 g; the food intake during this time was equivalent in both groups (20.7 g in wildtypes, and 22.7 g in mutants).
An effect of MSH could also be seen on coat pigmentation. […] Yellow coat pigmentation gradually reappeared after MSH treatment was terminated (data not shown).

POMC null mutant mice = experiment: Weight change and food intake under standard diet, MSH analog or high fat diet, POMC null mutant mice (Example 3); settings: 1 or 2 μg i.p. once daily
Method: (§3) P values were determined by ANOVA. If the major component of weight regulation through the melanocortinergic pathway was the regulation of feeding behavior, the observed changes in body weight in is POMC null mutant mice should be paralleled by a similar pattern in food uptake. This, however, was not observed (FIGS. 5B and 5D and Table 1).

ob/ob mutant mice [3] = experiment: Core temperature of ob/ob mutants exposed to 4° C. after MSH analog (Example 5); settings: 7 micrograms; 5 hours without food, then 4° C. for 65 minutes; v. vehicle
Method: In 1977, the decreased ability of ob/ob mutants to maintain body temperature at 4° C. was noted. This preceded the onset of obesity in these mice. In view of the evidence that MSH regulates adipocyte metabolism, the present inventors hypothesized that the low levels of circulating MSH in leptin deficient (ob/ob) mutants was responsible for the impaired thermal regulation. To test this, ob/ob mutants were injected with 7 micrograms of MSH analog or vehicle only as described above. The mice were left without food for 5 hours and then exposed to 4° C. for 65 minutes. Their core temperatures were measured periodically by transfer to a coldroom (4° C.) where core temperatures were measured using a digital thermometer fitted with a rectal probe (Atkins Technical Inc., Gainesville, Fla.). […] As the mice had no opportunity to eat between injection of the MSH analog and the cold challenge, food intake cannot be responsible for the altered thermal regulation.

wildtype mice = experiment: Weight change and food intake under standard diet, MSH analog or high fat diet, wildtype mice (Example 3); settings: 1 or 2 μg i.p. once daily
Method: as §3

wildtype female mice = experiment: Daily intraperitoneal MSH analog in wildtype littermates: body weight, food intake (Example 2); settings: for weight loss in wildtype littermates: 1 microgram i.p. daily, 16-day treatment
Method: as §1, §2

[4] = tested on: ob/ob mutant mice (C57BL/6J-Lep^ob); experiment: Circulating MSH levels by RIA in ob/ob mutants after leptin (Example 5); settings: leptin 7 microgram/day i.p.; two hours after the tenth daily injection
Method: To test the inductive ability of leptin on circulating MSH levels, ob/ob mutants (ob/ob mutant mice (C57BL/6J-Lep^ob) and congenic controls were purchased from the Jackson Laboratory, Bar Harbor, Me.) were treated with leptin (7 microgram/day) or with vehicle alone (Murine recombinant leptin was kindly provided by Dr. A. F Parlow through the National Hormone and Pituitary Program (NHPP); hormones were diluted to 70 micrograms per milliliter in PBS; mice were injected intraperitoneally with 0.1 mL). Two hours after the tenth daily injection, blood samples were drawn from the retro-orbital sinus and analyzed for MSH levels by RIA following the manufacturer's instructions (Peninsula Laboratories, Belmont, Calif.).

[5] = daily injections of 7 micrograms

[Ac-Cys^4, D-Phe^7, Cys^10]α-MSH (4-13) amide [MSH analog]
effect of MSH analog added to leptin on weight (ob/ob mutant mice [1]; 7 micrograms of each, daily): inability of peripheral MSH analog to supplement the weight reducing effect
effect on weight gain compared with effect on food intake (ob/ob mutant mice [1]; [5]): greater on weight gain than on food intake
weight gain (ob/ob mutant mice [1]; [5]): effectively decreased weight gain; also recorded: decreases weight gain
total weight change over a period of 10 days compared to untreated controls (obese lep^ob/ob mice): slowed weight gain by almost half
weight loss, % of excess weight by 2 weeks ([2]; 1 microgram (~1 nmol) i.p. daily, mutant female mice, listed as MSH-agonist): 46 % of excess weight
weight loss, % of excess weight by 2 weeks ([2]; 1 microgram (~1 nmol) i.p. daily, mutant female mice, listed as α-MSH agonist): over 40 % of excess weight
weight loss, % of excess weight within one week ([2]; 1 microgram (~1 nmol) i.p. daily, mutant female mice, p<0.1 at day 8): 38 % of excess weight
time until mutant mice started to gain weight after MSH injections were stopped ([2]; after 16-day treatment): about 10 days
weight regain after MSH injections were stopped ([2]; another two weeks after onset of regain): reached close to their pretreatment weight
weight lost during one week under MSH analog treatment ([2]; second week of treatment, mutant mice): 0.5 g
food intake during one week under MSH analog treatment ([2]; second week of treatment, mutants): 22.7 g
weight gained in one week after MSH analog treatment had been stopped for two weeks ([2]; third week after termination, mutant mice): 1.7 g
food intake in one week after MSH analog treatment had been stopped for two weeks ([2]; third week after termination, mutants): 35.7 g
excess food intake of mutants over wildtypes after treatment stop ([2]; third week after termination, p<0.005): 11.5 g
coat pigmentation ([2]; treated for two weeks): lost their yellowish tinge
food intake under MSH analog (POMC null mutant mice): decreases food intake
weight change under MSH analog (POMC null mutant mice): lose excess weight
core temperature / thermal homeostasis at 4° C. (ob/ob mutant mice [3]): maintained their core temperature much better; also recorded: increases thermal homeostasis
food intake under MSH analog (wildtype mice): decreases food intake
weight regulation under MSH analog (wildtype mice): maintaining their body weight constant
weight loss in wildtype littermates (wildtype female mice; listed as MSH-agonist): no significant weight loss
weight loss in wildtype littermates (wildtype female mice; listed as α-MSH agonist): did not lose significant weight
weight gained during one week under MSH analog treatment (wildtype female mice; second week of treatment, wildtype littermates): 0.3 g
food intake during one week under MSH analog treatment (wildtype female mice; second week of treatment, wildtypes): 20.7 g
weight gain in one week after MSH analog treatment had been stopped for two weeks (wildtype female mice; third week after termination, wildtype littermates): 0.3 g
food intake in one week after MSH analog treatment had been stopped for two weeks (wildtype female mice; third week after termination, wildtypes): 24.2 g

B1: leptin: recombinant mouse leptin, product of the ob gene, provided through the National Hormone and Pituitary Program (protein, UniProt P41160 22-167, looked up)
Leptin: VPIQKVQDDTKTLIKTIVTRINDISHTQSVSAKQRVTGLDFIPGLHPILSLSKMDQTLAVYQQVLTSLPSQNVLQIANDLENLRDLLHLLAFSKSCSLPQTSGLQKPESLDGVLEASLYSTEVVALSRLQGSLQDILQQLDVSPEC
circulating MSH levels [4]: approached those found in normal control mice; also recorded: induces almost normal levels of circulating MSH
weight gain (ob/ob mutant mice [1]; [5]): effectively decreased weight gain
total weight change over a period of 10 days compared to untreated controls (obese lep^ob/ob mice): little effect on preventing further weight gain
